{"source": "ChEMBL document CHEMBL3044926", "about": "“Controlling powdery mildew on cucurbit rootstock seedlings in the greenhouse with fungicides and biofungicides” (Crop Prot, 2012)", "key": {"[1]": {"system": "Lagenaria siceraria", "assay": "Phytotoxicity against Lagenaria siceraria 'Emphasis' rootstock seedlings", "format": "organism-based", "conditions": "in vivo"}, "[2]": {"system": "Cucurbita maxima x Cucurbita moschata", "assay": "Phytotoxicity against inter-specific squash hybrid Cucurbita moschata x Cucurbita maxima (Strong tosa) rootstock seedlings", "format": "organism-based", "conditions": "in vivo"}, "[3]": {"system": "Cucurbita maxima x Cucurbita moschata", "assay": "Phytotoxicity against inter-specific squash hybrid Cucurbita moschata x Cucurbita maxima (Strong tosa) rootstock seedlings assessed as stunting", "format": "organism-based", "conditions": "in vivo"}, "[4]": {"system": "Lagenaria siceraria", "assay": "Phytotoxicity against Lagenaria siceraria 'Emphasis' rootstock seedlings assessed as stunting", "format": "organism-based", "conditions": "in vivo"}, "[5]": {"system": "Lagenaria siceraria", "assay": "Phytotoxicity against Lagenaria siceraria 'Emphasis' rootstock seedlings assessed as stunted growth", "format": "organism-based", "conditions": "in vivo"}, "[6]": {"system": "Cucurbita maxima x Cucurbita moschata", "assay": "Phytotoxicity against inter-specific squash hybrid Cucurbita moschata x Cucurbita maxima (Strong tosa) rootstock seedlings assessed as stunted growth", "format": "organism-based", "conditions": "in vivo"}, "[7]": {"system": "Podosphaera xanthii", "assay": "(§1) Fungicidal activity against Podosphaera xanthii (powdery mildew) inoculated in Lagenaria siceraria Emphasis continuously after first drug application assessed as disease severity on lower surface areas of cotyledons at 40% in 0.37 ml/L applied thrice at 5-days intervals measured 5 days after third application under green house conditions (water Rvb = 13.9%)", "format": "functional"}, "[8]": {"system": "Podosphaera xanthii", "assay": "(§2) Fungicidal activity against Podosphaera xanthii (powdery mildew) inoculated in inter-specific squash hybrid Strong tosa (Cucurbita moschata x Cucurbita maxima) rootstock seedlings for 7 days prior to drug application assessed as disease severity at 40% in 0.37 ml/L applied once measured 7 days post-drug dose under greenhouse conditions (water Rvb = 17.5%)", "format": "functional"}, "[9]": {"system": "Podosphaera xanthii", "assay": "as §1, with “upper” for “lower”, “36.8%)” for “13.9%)”", "format": "functional"}, "[10]": {"system": "Podosphaera xanthii", "assay": "Fungicidal activity against Podosphaera xanthii (powdery mildew) inoculated in inter-specific squash hybrid Strong tosa (Cucurbita moschata x Cucurbita maxima) rootstock seedlings for 7 days prior to drug application assessed as incidence of disease symptoms on hypocotyls or upper or lower sides of cotyledons at 40% in 0.37 ml/L applied once measured 7 days post-drug dose under greenhouse …", "format": "functional"}, "[11]": {"system": "Podosphaera xanthii", "assay": "as §1, with “squash (Cucurbita pepo) rootstock seedlings” for “Lagenaria siceraria Emphasis”, “severity” for “severity on lower surface areas of cotyledons”, “3.9%)” for “13.9%)”", "format": "functional"}, "[12]": {"system": "Podosphaera xanthii", "assay": "Fungicidal activity against Podosphaera xanthii (powdery mildew) inoculated in squash (Cucurbita pepo) rootstock seedlings continuously after first drug application assessed as incidence of disease symptoms on hypocotyls or upper or lower sides of cotyledons at 40% in 0.37 ml/L applied thrice at 5-days intervals measured 5 days after third application under green house conditions (water Rvb = …", "format": "functional"}, "[13]": {"system": "Podosphaera xanthii", "assay": "as §2, with “severity on upper surface areas of cotyledonsat” for “severity at”, “= 10.2%)” for “= 17.5%)”", "format": "functional"}, "[14]": {"system": "Podosphaera xanthii", "assay": "as §1, with “severity” for “severity on lower surface areas of cotyledons”, “53.5%)” for “13.9%)”", "format": "functional"}, "[15]": {"system": "Podosphaera xanthii", "assay": "(§3) Fungicidal activity against Podosphaera xanthii (powdery mildew) inoculated in Lagenaria siceraria Emphasis continuously after first drug application assessed as incidence of disease symptoms on hypocotyls or upper or lower sides of cotyledons at 40% in 0.37 ml/L applied thrice at 5-days intervals measured 5 days after third application under green house conditions (water Rvb = 100%)", "format": "functional"}, "[16]": {"system": "Podosphaera xanthii", "assay": "as §2, with “severity on lower surface areas of cotyledonsat” for “severity at”, “= 5.1%)” for “= 17.5%)”", "format": "functional"}, "[17]": {"system": "Podosphaera xanthii", "assay": "as §2, with “20.6%” for “40%”, “1.36” for “0.37”", "format": "functional"}, "[18]": {"system": "Podosphaera xanthii", "assay": "as §1, with “20.6%” for “40%”, “1.36” for “0.37”", "format": "functional"}, "[19]": {"system": "Podosphaera xanthii", "assay": "as §1, with “upper” for “lower”, “20.6%” for “40%”, “1.36” for “0.37”, “36.8%)” for “13.9%)”", "format": "functional"}, "[20]": {"system": "Podosphaera xanthii", "assay": "Fungicidal activity against Podosphaera xanthii (powdery mildew) inoculated in inter-specific squash hybrid Strong tosa (Cucurbita moschata x Cucurbita maxima) rootstock seedlings for 7 days prior to drug application assessed as incidence of disease symptoms on hypocotyls or upper or lower sides of cotyledons at 20.6% in 1.36 ml/L applied once measured 7 days post-drug dose under greenhouse …", "format": "functional"}, "[21]": {"system": "Podosphaera xanthii", "assay": "(§4) Fungicidal activity against Podosphaera xanthii (powdery mildew) inoculated in squash (Cucurbita pepo) rootstock seedlings continuously after first drug application assessed as disease severity at 20.6% in 1.36 ml/L applied thrice at 5-days intervals measured 5 days after third application under green house conditions (water Rvb = 3.9%)", "format": "functional"}, "[22]": {"system": "Podosphaera xanthii", "assay": "Fungicidal activity against Podosphaera xanthii (powdery mildew) inoculated in squash (Cucurbita pepo) rootstock seedlings continuously after first drug application assessed as incidence of disease symptoms on hypocotyls or upper or lower sides of cotyledons at 20.6% in 1.36 ml/L applied thrice at 5-days intervals measured 5 days after third application under green house conditions (water Rvb = …", "format": "functional"}, "[23]": {"system": "Podosphaera xanthii", "assay": "as §2, with “on upper surface areas of cotyledonsat 20.6%” for “at 40%”, “1.36” for “0.37”, “10.2%)” for “17.5%)”", "format": "functional"}, "[24]": {"system": "Podosphaera xanthii", "assay": "as §4, with “Lagenaria siceraria Emphasis” for “squash (Cucurbita pepo) rootstock seedlings”, “53.5%)” for “3.9%)”", "format": "functional"}, "[25]": {"system": "Podosphaera xanthii", "assay": "as §3, with “20.6%” for “40%”, “1.36” for “0.37”", "format": "functional"}, "[26]": {"system": "Podosphaera xanthii", "assay": "as §2, with “on lower surface areas of cotyledonsat 20.6%” for “at 40%”, “1.36” for “0.37”, “5.1%)” for “17.5%)”", "format": "functional"}, "[27]": {"system": "Lagenaria siceraria", "assay": "Phytotoxicity against Lagenaria siceraria 'Emphasis' rootstock seedlings assessed as severe chlorosis or necrosis on cotyledons", "format": "organism-based", "conditions": "in vivo"}, "[28]": {"system": "Cucurbita maxima x Cucurbita moschata", "assay": "Phytotoxicity against inter-specific squash hybrid Cucurbita moschata x Cucurbita maxima (Strong tosa) rootstock seedlings assessed as severe chlorosis or necrosis on cotyledons", "format": "organism-based", "conditions": "in vivo"}, "[29]": {"system": "Podosphaera xanthii", "assay": "as §2, with “on upper surface areas of cotyledonsat 22.58%” for “at 40%”, “0.47ml/L” for “0.37 ml/L”, “10.2%)” for “17.5%)”", "format": "functional"}, "[30]": {"system": "Podosphaera xanthii", "assay": "as §2, with “22.58%” for “40%”, “0.47ml/L” for “0.37 ml/L”", "format": "functional"}, "[31]": {"system": "Podosphaera xanthii", "assay": "Fungicidal activity against Podosphaera xanthii (powdery mildew) inoculated in inter-specific squash hybrid Strong tosa (Cucurbita moschata x Cucurbita maxima) rootstock seedlings for 7 days prior to drug application assessed as incidence of disease symptoms on hypocotyls or upper or lower sides of cotyledons at 22.58% in 0.47ml/L applied once measured 7 days post-drug dose under greenhouse …", "format": "functional"}, "[32]": {"system": "Podosphaera xanthii", "assay": "as §4, with “22.58%” for “20.6%”, “0.47ml/L” for “1.36 ml/L”", "format": "functional"}, "[33]": {"system": "Podosphaera xanthii", "assay": "Fungicidal activity against Podosphaera xanthii (powdery mildew) inoculated in squash (Cucurbita pepo) rootstock seedlings continuously after first drug application assessed as incidence of disease symptoms on hypocotyls or upper or lower sides of cotyledons at 22.58% in 0.47ml/L applied thrice at 5-days intervals measured 5 days after third application under green house conditions (water Rvb = …", "format": "functional"}, "[34]": {"system": "Podosphaera xanthii", "assay": "as §2, with “on lower surface areas of cotyledonsat 22.58%” for “at 40%”, “0.47ml/L” for “0.37 ml/L”, “5.1%)” for “17.5%)”", "format": "functional"}}}
{"compound": "OO", "note": "[HYDROGEN PEROXIDE]", "values": [{"measurement": "Activity", "setting": "[1]", "value": "Non-toxic"}, {"measurement": "Activity", "setting": "[2]", "value": "Non-toxic"}, {"measurement": "Activity", "setting": "[3]", "value": "Non-toxic"}, {"measurement": "Activity", "setting": "[4]", "value": "Non-toxic"}]}
{"compound": "CCCCC(C#N)(Cn1cncn1)c1ccc(Cl)cc1", "note": "(stereo not given) [MYCLOBUTANIL]", "values": [{"measurement": "inhibition (INH)", "setting": "[5]", "value": 33, "unit": "%"}, {"measurement": "inhibition (INH)", "setting": "[6]", "value": 33, "unit": "%"}, {"measurement": "Activity", "setting": "[7]", "value": 0.9, "unit": "%"}, {"measurement": "Activity", "setting": "[8]", "value": 0.1, "unit": "%"}, {"measurement": "Activity", "setting": "[9]", "value": 3.1, "unit": "%"}, {"measurement": "Activity", "setting": "[10]", "value": 2.3, "unit": "%"}, {"measurement": "Activity", "setting": "[11]", "value": 0, "unit": "%"}, {"measurement": "Activity", "setting": "[12]", "value": 0, "unit": "%"}, {"measurement": "Activity", "setting": "[13]", "value": 0.08, "unit": "%"}, {"measurement": "Activity", "setting": "[14]", "value": 4.1, "unit": "%"}, {"measurement": "Activity", "setting": "[15]", "value": 65.1, "unit": "%"}, {"measurement": "Activity", "setting": "[16]", "value": 0.02, "unit": "%"}]}
{"compound": "CC(C)CC(C)c1sccc1NC(=O)c1cn(C)nc1C(F)(F)F", "note": "(stereo not given) [PENTHIOPYRAD]", "values": [{"measurement": "Activity", "setting": "[17]", "value": 0.05, "unit": "%"}, {"measurement": "Activity", "setting": "[18]", "value": 0.3, "unit": "%"}, {"measurement": "Activity", "setting": "[19]", "value": 0.9, "unit": "%"}, {"measurement": "Activity", "setting": "[20]", "value": 2.3, "unit": "%"}, {"measurement": "Activity", "setting": "[21]", "value": 0, "unit": "%"}, {"measurement": "Activity", "setting": "[22]", "value": 0, "unit": "%"}, {"measurement": "Activity", "setting": "[23]", "value": 0, "unit": "%"}, {"measurement": "Activity", "setting": "[24]", "value": 1.3, "unit": "%"}, {"measurement": "Activity", "setting": "[25]", "value": 14.6, "unit": "%"}, {"measurement": "Activity", "setting": "[3]", "value": "Toxic"}, {"measurement": "Activity", "setting": "[4]", "value": "Toxic"}, {"measurement": "Activity", "setting": "[26]", "value": 0.03, "unit": "%"}]}
{"compound": "O=C([O-])O.[K+]", "note": "[POTASSIUM BICARBONATE]", "values": [{"measurement": "Activity", "setting": "[1]", "value": "Non-toxic"}, {"measurement": "Activity", "setting": "[2]", "value": "Non-toxic"}, {"measurement": "Activity", "setting": "[3]", "value": "Non-toxic"}, {"measurement": "Activity", "setting": "[4]", "value": "Non-toxic"}]}
{"compound": "Fc1ccc(Oc2ccnc3cc(Cl)cc(Cl)c23)cc1", "note": "[QUINOXYFEN]", "values": [{"measurement": "Activity", "setting": "[27]", "value": "Toxic"}, {"measurement": "Activity", "setting": "[28]", "value": "Toxic"}, {"measurement": "Activity", "setting": "[29]", "value": 1.2, "unit": "%"}, {"measurement": "Activity", "setting": "[30]", "value": 1.8, "unit": "%"}, {"measurement": "Activity", "setting": "[31]", "value": 14.6, "unit": "%"}, {"measurement": "Activity", "setting": "[32]", "value": 0.43, "unit": "%"}, {"measurement": "Activity", "setting": "[33]", "value": 23.4, "unit": "%"}, {"measurement": "Activity", "setting": "[34]", "value": 0.3, "unit": "%"}]}
